Legend:
Pol I transcription = assay: Complementation of Pol I transcription in nuclear extracts from PD98059-treated FM3A cells; assay type: biochemical
Protocol: (C) TIF-IA, but not UBF, rescues Pol I transcription in extracts from PD98059-treated cells. Nuclear extracts from untreated or PD98059-treated FM3A cells were supplemented with 20 and 40 ng of purified TIF-IA and/or UBF (10 ng in lanes 7 and 9, 50 ng in lanes 3, 8 and 10).
(D) TIF-IA activates transcription in extracts from PD98059-treated cells in the presence of AMP-PNP and GMP-PNP. Nuclear extracts from PD98059-treated FM3A cells were supplemented with 40 ng of purified TIF-IA and assayed in the standard transcription system containing ATP and GTP (ATP, lanes 1, 2) or AMP-PNP and GMP-PNP (AMP-PNP, lanes 3, 4)
(D) ERK/RSK-dependent phosphorylation activates Pol I transcription in vitro. Nuclear extracts from PD98059-treated FM3A cells were supplemented with 40 ng of TIF-IA, 10 ng of HA-RSK, or 10 ng of HA-ERK as indicated, and transcriptional activity was assayed in the standard transcription system containing ATP and GTP (lanes 4-8) or AMP-PNP and GMP-PNP (lanes 9-13).
Nuclear extracts were prepared from exponentially growing (8×10^5 cells/ml), density-arrested or PD98059-treated (CN Bioscience, Bad Soden, Germany) 40 μM, 0.5 hr) or rapamycin-treated FM3A cells (ATCC, Manassas, USA). 25 μl assays contained 50 ng of template DNA (pMr600/EcoRI), 30 μg nuclear extract proteins and 12 mM Hepes-KOH, [pH8.0], 0.1 mM EDTA, 5 mM MgCl2, 80 mM KCl, 10 mM creatine phosphate, 12% (v/v) glycerol, 0.66 mM each of ATP, GTP and CTP, 0.01 mM UTP and 0.5 μCi [α-^32P]UTP (5000 Ci/mmol). After incubation for 60 min at 30° C., RNA was extracted and analyzed on non-denaturing 5% polyacrylamide gels
To test whether both TIF-IA and UBF, or TIF-IA alone, were targeted by ERK-mediated phosphorylation, nuclear extracts from untreated and PD98059-treated cells were assayed for rDNA transcription in the absence and presence of exogenous TIF-IA or UBF (FIG. 2C). If both UBF and TIF-IA were inactivated by PD98059, rescue of Pol I transcriptional activity would require both factors, whereas TIF-IA alone would be sufficient if it was the only factor that is inactivated by inhibition of the ERK pathway. […]

TIF-IA = assay: Western blot of TIF-IA and Pol I in stimulated NIH3T3 cells; assay type: cell-based; conditions: 40 μM PD98059, 30 min
Protocol: Serum-starved NIH3T3 cells were stimulated for 30 min by 10% serum, 10 ng bFGF, 50 ng/ml EGF or 0.1 μM TPA in the absence or presence of 40 μM PD98059. A Western blot is shown with 50 μg lysate proteins and antibodies against unphosphorylated and phosphorylated ERK1/2 as well as Pol I (RPA116) and TIF-IA.
Similarly, the amount of both Pol I and TIF-IA remained the same in quiescent and serum-stimulated cells. On Western blots, TIF-IA from growing and quiescent cells appears as a closely spaced double-band (indicated by a dot and asterisk in FIG. 1B) that corresponds to differently phosphorylated forms of TIF-IA. After mitogenic stimulation, the faster migrating form was converted into the more slowly migrating TIF-IA moiety. The shift in electrophoretic mobility correlated with cellular pre-rRNA synthetic activity, i.e., was predominant 20-30 min after mitogenic stimulation and returned to normal levels after 2 hr. Activation of pre-rRNA synthesis and decrease in the electrophoretic mobility of TIF-IA was also observed after stimulation of quiescent cells with growth factors, e.g. bFGF, or EGF, or with the phorbol ester TPA (FIGS. 1C and D), a potent stimulus of the Ras-ERK pathway, through activation of protein kinase C.

“TIF-IA: wild-type human transcription initiation factor TIF-IA, accession No. AJ272050” was tested, and the “rescue of Pol I transcription in extracts from PD98059-treated cells” value (Pol I transcription; in the presence of AMP-PNP and GMP-PNP) was “activation of Pol I transcription by TIF-IA was also observed” and the “rescue of Pol I transcription in extracts from PD98059-treated cells” value (Pol I transcription; standard transcription system containing ATP and GTP) was “rescued”.

With COc1cccc(-c2cc(=O)c3ccccc3o2)c1N [PD98059] the “effect on electrophoretic mobility shift of TIF-IA after stimulation” value (TIF-IA) was “prevented the electrophoretic mobility shift of TIF-IA” and the “effect on the amount of Pol I and TIF-IA” value (TIF-IA) was “does not affect the amount of Pol I and TIF-IA”.
